The source of these data is patent US20040037806A1, “Aldosterone blocker therapy to prevent or treat inflammation-related disorders” (Pharmacia Corporation, priority 2002, published 2004).

Holding throughout (type): in vivo, rat
One test concerns cyclooxygenase-2 (COX-2). Briefly: Assay A: cyclooxygenase-2 immunostaining of hearts. As to conditions: angiotensin II-infused, saline-drinking Wistar rats, eplerenone 100 mpk, aldosterone replacement in adrenalectomized rats.
The test system of the next test is osteopontin. Briefly: Assay A: osteopontin immunostaining of hearts. The note with it: angiotensin II-infused, saline-drinking Wistar rats; eplerenone 100 mpk; aldosterone replacement in adrenalectomized rats.
Test [1] in a line: Assay A: angiotensin II infusion model, urinary Na+/K+ ratio (natriuresis index). As to conditions: Wistar rats, 1% NaCl, angiotensin II 25 ng/min sc; eplerenone 100 mpk. The source says:
Electrolyte excretion. The ratio between daily urinary Na^+ excretion and urinary K^+ excretion (U Na^+/K^+ ratio) was used as an index for natriuresis. Urinary Na^+/K^+ ratio was similar in all groups before the start of the treatments, and increased similarly in all animals upon initiation of the high salt diet.

Test [2] in a line: Assay A: angiotensin II infusion model, heart histology (hematoxylin&eosin), vascular inflammation and myocardial injury. The note with it: Wistar rats, 1% NaCl, angiotensin II 25 ng/min sc, 4 weeks, 10/group; eplerenone 100 mpk; aldosterone replacement in adrenalectomized rats. An excerpt:
Assay A: In Vivo Angiotensin II Infusion Model
Male Wistar rats (n=50, 10/group; BW=200 g)
Sacrifice by exanguination after 4 weeks. Blood was be collected in dry tubes for determination of serum electrolytes and in EDTA-containing tubes for measurement of aldosterone and corticosterone levels
Hearts were stained with hematoxylin&eosin and have been analyzed for determination of morphologic abnormalities (i.e. necrosis, vascular injury).

A short description of test [3]: Assay A: angiotensin II infusion model, systolic blood pressure by tail-cuff. The note with it: Wistar rats, 1% NaCl to drink, angiotensin II 25 ng/min sc, 4 weeks; eplerenone 100 mpk; aldosterone given to adrenalectomized, dexamethasone-treated rats.

Turning to “angiotensin II (DRVYIHPF; Angiotensin-2; UniProt P01019 25-32, looked up) [vasoconstrictive octapeptide infused sc via alzet minipump to induce hypertension]”, the “Cyclooxygenase-2 expression in the heart (immunostaining)” value is on record as “presence of this enzyme in areas of inflammation around the arteries” with cyclooxygenase-2 (COX-2) and “induction of COX-2 expression” in the test on cyclooxygenase-2 (COX-2) (listed as Ang II). For the same substance, the “Osteopontin expression in the heart (immunostaining)” value in the test on osteopontin was “presence of osteopontin in the media of coronary arteries”. Besides, the “Urinary Na+/K+ ratio (index for natriuresis)” value in test [1] is “significantly increased”. Besides, the “Vascular inflammatory lesions in the coronary arteries / heart” value in test [2] was “Seven out of the ten”. Moreover, in test [3], the Systolic blood pressure entry was “increased”.
